{"source": "patent US4137224A", "about": "(Schering Corporation, priority 1977, dated 1979)", "key": {"Aeromonas sp. W-10": {"test_system": "Aeromonas sp. W-10", "experiment": "Resistance of Aeromonas sp. W-10 to antibacterial agents", "type": "cell-based", "conditions": "in words", "protocol": "The growth and physiological characteristics of Aeromonas sp. All observations were made after seven (7) days of incubation at 28° C. Color designations are assigned according to the classification in the Color Harmony Manual (1958), Container Corporation of America. The designates G, S, C and R used herein stand for growth, surface, color and reaction, respectively."}, "[1]": {"test_system": "Trichophyton mentagrophytes", "experiment": "In vivo activity against Trichophyton mentagrophytes infection in guinea pigs", "conditions": "1% in polyethylene glycol 400, topical, twice daily for ten days", "protocol": "The skin of fifteen guinea pigs is abraided and infected with a standard culture of Trichophyton mentagrophytes. The infected animals are then separated into three groups containing five animals each. Suspensions containing 1% of the respective antibiotics in polyethylene glycol 400 are prepared. Two of the three groups are treated topically, twice daily for ten days commencing three days after infection. The third group (controls) remained untreated throughout the test. All of the animals are tested for infection by culture and observed for skin lesions for a total of 21 days."}, "[2]": {"experiment": "Toxicity (LD50), oral or subcutaneous administration", "conditions": "in vivo"}, "Candida albicans [3]": {"test_system": "Candida albicans", "experiment": "In vivo activity in mice infected intravenously with Candida albicans", "parameters": "species or system male CFl mice; Candida albicans", "conditions": "48 hours after infection, read-out: PD50", "protocol": "PD50 values were determined 48 hours after infection and are as follows: […]"}, "[4]": {"test_system": "Saccharomyces cerevisiae ATCC 9763", "experiment": "Agar diffusion assay against Antibiotic 20562 standard", "type": "cell-based", "protocol": "The broths are assayed against a standard solution of Antibiotic 20562 having an assigned potency of 1000 mcg/mg. The standard solution is diluted with 10% potassium phosphate buffer (pH 6.0) to make solutions having antibiotic concentrations of 3.2, 4.0, 5.0, 6.25 and 7.8 mcg/ml. The assay is performed substantially as set forth in the Federal Register, Title 21, Chapter 436.105."}, "[5]": {"test_system": "Candida albicans (Wisconsin strain)", "experiment": "Topical in vivo activity against Candida albicans intravaginal infection in hamsters", "parameters": "species or system female hamsters; Candida albicans", "conditions": "three day treatment", "protocol": "Using a culture of Candida albicans (Wisconsin strain), in Sabourrauds dextrose broth, infect intravaginally, five groups of six female hamsters. Forty-eight and seventy-two hours after infection, make smears of the infected animals and culture the smears. […] (96 hours after infection), make additional smears, culture and commence treatment. One group of six animals (controls) receives no treatment and, therefore, remains infected throughout the test. The remaining four groups of animals are treated with Antibiotic 20562, as 1%, 5%, 10% and 15% suspensions, respectively, the vehicle for suspension being administered on a cotton swab. At the end of the three day treatment the 1%, 5% and 10% groups are 60% cured, the 15% group is completely (100%) cured."}, "Candida albicans [6]": {"test_system": "Candida albicans", "experiment": "In vitro MIC against strains of Candida albicans in Sabouraud dextrose broth", "type": "cell-based", "protocol": "Antibiotic 20562 was tested in vitro in Sabourraud dextrose broth against strains of Candida albicans, the Minimum Inhibitory Concentration (MIC) being set forth in Table IV below: […]"}, "[7]": {"conditions": "sc, single subcutaneous dose one hour after infection"}, "[8]": {"conditions": "single oral dose one hour after infection"}, "[9]": {"conditions": "Example 2 step B, after chromatography"}, "[10]": {"conditions": "Example 3 steps C and D, after chromatography"}, "[11]": {"conditions": "isolated antibiotics, crystalline from methanol"}}, "note": "Where two headings read alike, the source gives them in different places. *1 amine or outer side, *2 acyl side, *3 side chain or, on linkers, in order; H or OH if unused. Where a SMILES comes first, the peptide text is derived from it. Bridges are numbered along the chain shown (N, C = ends). [ ]: non-standard residue; d: D form. The star is where a group is joined. NMeT = CN[CH](C(=O)O)[CH](C)O; X1 = CCCCCCCCCCCC(O)CC(=O)*; X2 = CC=C(N[*:1])C(=O)[*:2]; X3 = OCC1OC(*)C(O)C(O)C1O", "data": [{"smiles": "CC(C)c1nc2nc(N)nc(N)c2nc1C(C)C", "note": "[0/129, 2,4-diamino-6,7-diisopropylpteridine]", "values": [{"measurement": "sensitivity of Aeromonas sp. W-10 to the vibriostatic compound", "setting": "Aeromonas sp. W-10", "value": "insensitive"}]}, {"smiles": "CC=C(NC(=O)CC(O)CCCCCCCCCCC)C(=O)NC1C(=O)NC(C(C)O)C(=O)NC(Cc2ccc(O)cc2)C(=O)NC(=CC)C(=O)NC(CCC(N)=O)C(=O)NCC(=O)N(C)C(C(C)O)C(=O)NC(Cc2cnc[nH]2)C(=O)OC1C", "note": "(centres unmarked) [Antibiotic 20561] (X1-[X2]TTY[X2]QG[NMeT]H; ester 2-C; configuration not given here)", "values": [{"measurement": "Days to become negative, Culture", "setting": "[1]", "value": 4.8, "unit": "days"}, {"measurement": "Days to become negative, Lesion", "setting": "[1]", "value": 6.3, "unit": "days"}, {"measurement": "LD50", "setting": "[2]; po", "value": 1000, "unit": "mg/kg"}, {"measurement": "LD50", "setting": "[2]; sc", "value": "> 1000", "unit": "mg/kg"}, {"measurement": "ED50", "setting": "Candida albicans [3]; [7]", "value": 4, "unit": "mg/kg"}, {"measurement": "ED50", "setting": "Candida albicans [3]; [8]", "value": 25, "unit": "mg/kg"}, {"measurement": "assay (potency)", "setting": "[4]; [9]", "value": 800, "unit": "µg/mg"}, {"measurement": "assay (potency)", "setting": "[4]; [10]", "value": 800, "unit": "µg/mg"}, {"measurement": "assay (potency)", "setting": "[4]; [11]", "value": "about 800 mcg/mg"}]}, {"smiles": "CC=C(NC(=O)CC(O)CCCCCCCCCCC)C(=O)NC1C(=O)NC(C(C)O)C(=O)NC(Cc2ccc(O)cc2)C(=O)NC(=CC)C(=O)NC(CCC(N)=O)C(=O)NCC(=O)N(C)C(C(C)OC2OC(CO)C(O)C(O)C2O)C(=O)NC(Cc2cnc[nH]2)C(=O)OC1C", "note": "(centres unmarked) [Antibiotic 20562] (X1-[X2]TTY[X2]QG[NMeT](X3)H; ester 2-C; configuration not given here)", "values": [{"measurement": "Days to become negative, Culture", "setting": "[1]", "value": 5.8, "unit": "days"}, {"measurement": "Days to become negative, Lesion", "setting": "[1]", "value": 9.0, "unit": "days"}, {"measurement": "cured", "setting": "[5]; 1% suspension", "value": 60, "unit": "%"}, {"measurement": "cured", "setting": "[5]; 5% suspension", "value": 60, "unit": "%"}, {"measurement": "cured", "setting": "[5]; 10% suspension", "value": 60, "unit": "%"}, {"measurement": "cured", "setting": "[5]; 15% suspension", "value": 100, "unit": "%"}, {"measurement": "LD50", "setting": "[2]; po", "value": 800, "unit": "mg/kg"}, {"measurement": "LD50", "setting": "[2]; sc", "value": 600, "unit": "mg/kg"}, {"measurement": "ED50", "setting": "Candida albicans [3]; [7]", "value": 4, "unit": "mg/kg"}, {"measurement": "ED50", "setting": "Candida albicans [3]; [8]", "value": 25, "unit": "mg/kg"}, {"measurement": "MIC", "setting": "Candida albicans [6]; Candida albicans, strain Burke, read-out: MIC", "value": 0.075, "unit": "µg/mL"}, {"measurement": "MIC", "setting": "Candida albicans [6]; strain 29", "value": 0.075, "unit": "µg/mL"}, {"measurement": "MIC", "setting": "Candida albicans [6]; strain Bevan", "value": 0.075, "unit": "µg/mL"}, {"measurement": "MIC", "setting": "Candida albicans [6]; strain Collins", "value": 0.075, "unit": "µg/mL"}, {"measurement": "MIC", "setting": "Candida albicans [6]; strain Fix", "value": 0.075, "unit": "µg/mL"}, {"measurement": "MIC", "setting": "Candida albicans [6]; strain Lush", "value": 0.075, "unit": "µg/mL"}, {"measurement": "MIC", "setting": "Candida albicans [6]; strain Merkel", "value": 0.075, "unit": "µg/mL"}, {"measurement": "MIC", "setting": "Candida albicans [6]; strain Newcomb", "value": 0.075, "unit": "µg/mL"}, {"measurement": "MIC", "setting": "Candida albicans [6]; strain No. 1", "value": 0.075, "unit": "µg/mL"}, {"measurement": "MIC", "setting": "Candida albicans [6]; strain Raub", "value": 0.075, "unit": "µg/mL"}, {"measurement": "MIC", "setting": "Candida albicans [6]; strain Sperk", "value": 0.075, "unit": "µg/mL"}, {"measurement": "MIC", "setting": "Candida albicans [6]; strain Wisconsin", "value": 0.075, "unit": "µg/mL"}, {"measurement": "assay (potency)", "setting": "[4]; [9]", "value": 800, "unit": "µg/mg"}, {"measurement": "assay (potency)", "setting": "[4]; [10]", "value": 1000, "unit": "µg/mg"}, {"measurement": "assay (potency)", "setting": "[4]; [11]", "value": "about 1000 mcg/mg"}]}]}
